From patent US9051299B2, “Imidazolyl methyl piperidine T-type calcium channel antagonists” (Merck Sharp & Dohme Corp., priority 2012, dated 2015) come the findings set out here.

SMILES strings stand for the structures.

For test [1], the target named is T1, T-type calcium channel A1i (alpha-1I, CaV 3.3) (Homo sapiens, UniProt Q9P0X4).
T1 construct: expressed in transfected cells; host or cells: HEK 293 cells, tetracycline-inducible expression (Zeocin/Blasticidin selection)
Put plainly: FLIPR Ca2+ Flux Assay, hyperpolarized state. As to conditions: measure of the ability to inhibit T-type calcium channel, read-out: Ali Hyperpolarized. The test is classed as cell-based. In general terms: A change in cytosolic calcium serves as a functional read-out for many receptors and channels.

The target in test [2] is T1, T-type calcium channel A1i (alpha-1I, CaV 3.3). Put plainly: FLIPR Ca2+ Flux Assay, depolarized state. The test is classed as cell-based. The note with it: measure of the ability to inhibit T-type calcium channel.

T1 sequence (Q9P0X4 whole entry): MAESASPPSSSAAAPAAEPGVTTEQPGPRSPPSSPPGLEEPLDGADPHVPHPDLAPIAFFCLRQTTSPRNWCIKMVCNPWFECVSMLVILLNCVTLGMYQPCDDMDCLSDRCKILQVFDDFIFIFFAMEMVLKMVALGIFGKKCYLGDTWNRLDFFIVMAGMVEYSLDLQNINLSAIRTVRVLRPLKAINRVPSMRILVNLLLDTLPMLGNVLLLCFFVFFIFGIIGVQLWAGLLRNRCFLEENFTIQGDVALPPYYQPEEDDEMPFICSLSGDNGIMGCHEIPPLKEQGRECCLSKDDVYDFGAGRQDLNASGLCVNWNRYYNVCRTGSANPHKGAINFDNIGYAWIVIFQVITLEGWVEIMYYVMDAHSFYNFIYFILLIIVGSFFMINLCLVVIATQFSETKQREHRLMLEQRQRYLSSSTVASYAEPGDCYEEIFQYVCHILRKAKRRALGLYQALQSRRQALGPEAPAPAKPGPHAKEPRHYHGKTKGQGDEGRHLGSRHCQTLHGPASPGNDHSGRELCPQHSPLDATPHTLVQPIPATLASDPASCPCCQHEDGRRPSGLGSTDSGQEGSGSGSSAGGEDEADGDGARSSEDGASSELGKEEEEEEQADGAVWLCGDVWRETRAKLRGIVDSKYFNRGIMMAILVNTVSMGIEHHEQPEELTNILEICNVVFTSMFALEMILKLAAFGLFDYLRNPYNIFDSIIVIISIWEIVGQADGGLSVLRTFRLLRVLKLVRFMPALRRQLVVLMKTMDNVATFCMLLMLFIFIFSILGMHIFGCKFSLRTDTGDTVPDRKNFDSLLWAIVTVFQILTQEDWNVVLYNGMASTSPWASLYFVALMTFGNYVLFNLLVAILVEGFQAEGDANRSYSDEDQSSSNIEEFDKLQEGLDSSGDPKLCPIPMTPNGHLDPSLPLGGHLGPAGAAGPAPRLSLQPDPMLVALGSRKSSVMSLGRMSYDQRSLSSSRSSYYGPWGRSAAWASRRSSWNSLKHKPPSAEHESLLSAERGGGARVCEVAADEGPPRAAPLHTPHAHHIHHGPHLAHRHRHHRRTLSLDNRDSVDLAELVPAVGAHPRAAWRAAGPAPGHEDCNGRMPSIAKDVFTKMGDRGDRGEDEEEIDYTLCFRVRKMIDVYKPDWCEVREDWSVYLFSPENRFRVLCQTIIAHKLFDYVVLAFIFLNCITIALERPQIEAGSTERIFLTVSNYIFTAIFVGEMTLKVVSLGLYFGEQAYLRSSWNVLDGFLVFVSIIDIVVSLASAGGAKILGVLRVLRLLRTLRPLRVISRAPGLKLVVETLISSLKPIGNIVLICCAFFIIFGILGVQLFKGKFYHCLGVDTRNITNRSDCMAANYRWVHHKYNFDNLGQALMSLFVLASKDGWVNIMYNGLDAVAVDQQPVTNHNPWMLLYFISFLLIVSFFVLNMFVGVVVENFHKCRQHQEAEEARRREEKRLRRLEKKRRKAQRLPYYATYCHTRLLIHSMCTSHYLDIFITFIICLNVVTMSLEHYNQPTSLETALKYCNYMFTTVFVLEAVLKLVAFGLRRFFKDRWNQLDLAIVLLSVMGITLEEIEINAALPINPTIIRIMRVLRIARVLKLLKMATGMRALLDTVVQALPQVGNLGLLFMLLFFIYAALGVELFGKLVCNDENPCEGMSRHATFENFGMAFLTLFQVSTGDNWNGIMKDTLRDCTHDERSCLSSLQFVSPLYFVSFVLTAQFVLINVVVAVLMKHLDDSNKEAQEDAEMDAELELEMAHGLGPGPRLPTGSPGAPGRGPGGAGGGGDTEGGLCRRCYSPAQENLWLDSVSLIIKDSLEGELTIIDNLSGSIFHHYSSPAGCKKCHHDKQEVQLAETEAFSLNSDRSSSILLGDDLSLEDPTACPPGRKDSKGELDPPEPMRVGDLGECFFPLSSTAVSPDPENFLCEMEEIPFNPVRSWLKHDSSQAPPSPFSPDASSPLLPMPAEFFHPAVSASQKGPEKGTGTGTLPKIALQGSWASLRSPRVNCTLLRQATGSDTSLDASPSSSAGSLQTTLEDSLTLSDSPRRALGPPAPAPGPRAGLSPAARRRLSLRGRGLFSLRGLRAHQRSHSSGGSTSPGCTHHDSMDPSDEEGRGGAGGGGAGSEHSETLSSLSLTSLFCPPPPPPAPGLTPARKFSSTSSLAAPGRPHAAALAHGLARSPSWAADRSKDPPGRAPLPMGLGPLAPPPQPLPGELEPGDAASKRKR

As for `Cc1cccc(C(=O)C2CCN(Cc3c[nH]c(-c4ccccc4)n3)CC2)c1` [Example 8, m-tolyl-[1-[(2-phenyl-1H-imidazol-4-yl)methyl]-4-piperidyl]methanone], the IC50 was 0.313 µM in test [1] and 4.62 µM in test [2].

Consider `O=C(c1ccc2nonc2c1)C1CCN(Cc2c[nH]c(-c3ccccc3)n2)CC1` [Example 4, 2,1,3-benzoxadiazol-5-yl-[1-[(2-phenyl-1H-imidazol-4-yl)methyl]-4-piperidyl]methanone], for which the results for the IC50 in test [1] and in test [2] were 0.155 µM and 2.87 µM, respectively.

Consider `O=C(c1cccc(Cl)c1)C1CCN(Cc2c[nH]c(-c3ccccc3)n2)CC1` [Example 3, (3-chlorophenyl)-[1-[(2-phenyl-1H-imidazol-4-yl)methyl]-4-piperidyl]methanone], for which the IC50 stood at 0.129 µM in test [1] and 2.09 µM in test [2].

For `O=C(c1ccc(F)c(F)c1)C1CCN(Cc2c[nH]c(-c3ccccc3)n2)CC1` [Example 5, (3,4-difluorophenyl)-[1-[(2-phenyl-1H-imidazol-4-yl)methyl]-4-piperidyl]methanone], the values for the IC50 in test [1] and in test [2] were 0.686 µM and 4.06 µM, respectively.

`COc1ccc(C(=O)C2CCN(Cc3c[nH]c(-c4ccccc4)n3)CC2)cc1` [Example 6, (4-methoxyphenyl)-[1-[(2-phenyl-1H-imidazol-4-yl)methyl]-4-piperidyl]methanone]: the values for the IC50 in test [1] and in test [2] were 1.06 µM and more than 10 µM, respectively.

On to `O=C(c1ccc(F)cc1)C1CCN(Cc2c[nH]c(-c3ccccc3)n2)CC1` [Example 2], for which the results for the IC50 in test [1] and in test [2] were 0.242 µM and 3.18 µM, respectively.

`Cc1ccc(C(=O)C2CCN(Cc3c[nH]c(-c4ccccc4)n3)CC2)cc1` [Example 7, [1-[(2-phenyl-1H-imidazol-4-yl)methyl]-4-piperidyl]-(p-tolyl)methanone]: the IC50 in test [1] turned out to be 0.644 µM; in test [2], 7.09 µM.

As for `CCc1nc(C)c(CN2CCC(C(=O)c3cccc(C(F)(F)F)c3)CC2)[nH]1` [Example 10, [1-[(2-ethyl-4-methyl-1H-imidazol-5-yl)methyl]-4-piperidyl]-[3-(trifluoromethyl)phenyl]methanone], the results for the IC50 in test [1] and in test [2] were 6.9 µM and more than 10 µM, respectively.

As to `Cc1nc(CN2CCC(C(=O)c3cccc(C(F)(F)F)c3)CC2)c[nH]1` [Example 9, [1-[(2-methyl-1H-imidazol-4-yl)methyl]-4-piperidyl]-[3-(trifluoromethyl)phenyl]methanone], the IC50 in test [1] was 7.6 µM; in test [2], more than 10 µM.

Turning to `O=C(c1cccc(C(F)(F)F)c1)C1CCN(Cc2cnc(-c3ccccc3)[nH]2)CC1` [Example 1, (1-((2-Phenyl-1H-imidazol-5-yl)methyl)piperidin-4-yl)(3-(trifluoromethyl)phenyl)-methanone], the IC50 in test [1] was found to be 0.07 µM; in test [2], 0.742 µM.
